40 compounds from ChEMBL document CHEMBL1156734, “Discovery of 1,3-disubstituted-1H-pyrrole derivatives as potent melanin-concentrating hormone receptor 1 (MCH-R1) antagonists” (Bioorg Med Chem Lett, 2008) can be followed below.

The target of data set [1] is T1, Melanin-concentrating hormone receptor 1 (Homo sapiens, UniProt Q99705). Put plainly: Displacement of [125I]MCH from human MCHR1 expressed in HEK293 cells. Type of data set: cell-based. (In general: Loss of bound radioactivity is the signal in a displacement assay; it reports binding, not function.)
Data set [2] concerns the target T1, Melanin-concentrating hormone receptor 1. Briefly: Antagonist activity at human MCHR1 expressed in HEK293 cells assessed as [35S]GTPgammaS accumulation. It is filed as functional, cell-based. (Binding of GTPγS marks nucleotide exchange on a G protein.)
The subject of another data set is Liver microsomes. Briefly: Metabolic stability in human liver microsomes. It is filed as ADME, Microsome. (In general: Liver microsomes are a subcellular fraction often used to study metabolism.)
Another data set deals with Mus musculus. Briefly: Intrinsic clearance in C57BL mouse at 20 uM/kg, iv. The settings on record: in vivo. Type of data set: ADME, organism-based.
Data set [3] in a line: Fraction unbound in human plasma. It is filed as ADME, cell-free.

T1 sequence (Q99705 whole entry): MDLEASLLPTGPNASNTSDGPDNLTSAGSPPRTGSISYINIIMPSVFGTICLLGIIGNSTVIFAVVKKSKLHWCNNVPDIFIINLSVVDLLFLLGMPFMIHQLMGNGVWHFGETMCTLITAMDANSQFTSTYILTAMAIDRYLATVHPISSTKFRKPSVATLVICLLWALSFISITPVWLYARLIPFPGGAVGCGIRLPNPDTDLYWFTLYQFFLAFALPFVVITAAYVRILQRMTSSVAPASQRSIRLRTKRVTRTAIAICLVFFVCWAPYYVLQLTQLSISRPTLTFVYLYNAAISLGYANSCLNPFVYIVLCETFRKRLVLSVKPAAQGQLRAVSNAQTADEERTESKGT

The compound `O=C(COc1ccc(F)c(F)c1)NCC1CN(Cc2ccn(-c3ccc(C(F)(F)F)cc3)c2)CCO1` (stereo not given) showed an IC50 in data set [1] of 0.269 µM.
In the case of `FC(F)(F)c1ccc(-n2ccc(CN3CCC(NCCOc4cccc(Cl)c4)CC3)c2)cc1`, the IC50 in data set [1] was 0.636 µM.
On to `O=C(COc1cccc(Cl)c1)NC1CCN(Cc2cccc(-n3cccc3)c2)CC1`, for which the IC50 in data set [1] came to 0.297 µM.
For the compound `O=C(NC1CCN(Cc2ccc(Cl)c(Cl)c2)CC1)c1csc([N+](=O)[O-])c1`, the IC50 in data set [2] is 0.804 µM; in data set [1] it was 0.092 µM.
On to `O=C(COc1cccc(Cl)c1)NC1CCN(Cc2ccn(-c3ccc(C(F)(F)F)cc3)c2)CC1`, for which the clearance with Liver microsomes was found to be 38 µL/min/mg. Further, in the data set with Mus musculus, the CL is 41 mL/min/kg. Also, the fraction unbound in data set [3] was determined as 0.012.
In the case of `O=C(COc1cccc(Cl)c1)NC1CCN(Cc2ccc(-c3ccccn3)cc2)CC1`, the 50% inhibitory concentration (IC50) in data set [1] was 0.12 µM.
Same read-out and setting: under `O=C(COc1cccc(Cl)c1)NC1CCCN(Cc2ccn(-c3ccc(C(F)(F)F)cn3)c2)C1` (stereo not given) stands 3.05 µM; under `O=C(COc1cccc(Cl)c1)N[C@H]1[C@@H]2CN(Cc3ccn(-c4ccc(C(F)(F)F)cc4)c3)C[C@@H]21`, 0.111 µM; under `Fc1ccc(-c2ncc(C3CCN(Cc4ccn(-c5ccc(C(F)(F)F)cc5)c4)CC3)[nH]2)cc1`, 0.113 µM.
On to `O=C(COc1cccc(Cl)c1)NC1CCN(Cc2cc3c(cc2Cl)OCO3)CC1`, for which the IC50 in data set [2] worked out at 0.505 µM; in data set [1], 0.082 µM.
Turning to `O=C(COc1cccc(Cl)c1)NC1CN(Cc2ccn(-c3ccc(C(F)(F)F)cc3)c2)C1`, the IC50 in data set [2] was found to be 0.073 µM; in data set [1], 0.042 µM.
For `O=C(COc1cccc(Cl)c1)NC1CCN(Cc2ccc3ccccc3c2)CC1`, the IC50 in data set [2] was determined as 0.104 µM; in data set [1], 0.041 µM.
Regarding `O=C(COc1cccc(Cl)c1)NC1CCN(Cc2ccc(-c3ccc(C(F)(F)F)cn3)o2)CC1`, in data set [1], the IC50 was 0.927 µM.
The same measure, in the same setting: under `CN(C(=O)COc1cccc(Cl)c1)C1CCN(Cc2ccn(-c3ccc(C(F)(F)F)cc3)c2)CC1` stands 0.109 µM.
Consider `O=C(COc1cccc(Cl)c1)NC1CCN(Cc2ccc(-c3ccc(OC(F)(F)F)cc3)o2)CC1`, for which the IC50 in data set [2] stood at 0.103 µM; in data set [1], 0.078 µM.
In data set [1], `O=C(COc1cccc(Cl)c1)NCC1CCCN(Cc2ccn(-c3ccc(C(F)(F)F)cn3)c2)C1` (stereo not given) yielded a half-inhibitory concentration (IC50) of 0.303 µM.
On the same count and under the same terms, as for `O=C(COc1cccc(Cl)c1)NC1CCN(Cc2ccc3c(c2)OCCO3)CC1`, the figure is 0.903 µM; as for `O=C(COc1cccc(Cl)c1)NC1CCN(Cc2ccn(-c3ccccc3)c2)CC1`, 0.71 µM; as for `Cc1cc(CN2CCC(NC(=O)COc3cccc(Cl)c3)CC2)c(C)n1-c1ccccc1`, 9.65 µM.
Regarding `O=C(COc1cccc(Cl)c1)NC1CCN(Cc2ccn(-c3ccon3)c2)CC1`, in data set [1], the IC50 is 1.5 µM.
For the compound `O=C(COc1ccc(F)c(F)c1)NC1CCN(Cc2ccn(-c3ccc(C(F)(F)F)cc3)c2)C1` (stereo not given), the IC50 in data set [2] was 0.048 µM; in data set [1], 0.029 µM.
For the compound `Fc1ccc(-c2cc(C3CCN(Cc4ccn(-c5ccc(C(F)(F)F)cc5)c4)CC3)n[nH]2)cc1`, the IC50 was 0.058 µM in data set [2] and 0.037 µM in data set [1].
`O=C(COc1cccc(Cl)c1)NCC1CCN(Cc2ccn(-c3ccc(C(F)(F)F)cn3)c2)CC1` had a half-inhibitory concentration (IC50) in data set [1] of 0.313 µM.
With `O=C(COc1cccc(Cl)c1)NC1CCN(Cc2ccn(-c3ccc(C(F)(F)F)cn3)c2)CC1`, the figures for the IC50 in data set [2] and in data set [1] were 0.092 µM and 0.048 µM, respectively.
As for `Fc1ccc(-c2c[nH]c(C3CCN(Cc4ccn(-c5ccc(C(F)(F)F)cc5)c4)CC3)n2)cc1`, the IC50 was 0.122 µM in data set [2] and 0.02 µM in data set [1].
`O=C(COc1ccc(F)c(F)c1)N[C@H]1CC[C@H](Nc2ccn(-c3ccc(C(F)(F)F)cc3)c2)C1` displayed an IC50 in data set [1] of 2.26 µM.
Take `Cc1c(-c2ccccc2)[nH]c(=O)n1C1CCN(Cc2ccn(-c3ccc(C(F)(F)F)cc3)c2)CC1`: the IC50 in data set [2] stood at 0.071 µM; in data set [1], 0.026 µM.
On to `O=C(COc1cccc(Cl)c1)NC1CCN(Cc2csc(-c3ccc(Cl)cc3)n2)CC1`, for which, in data set [1], the IC50 came to 0.347 µM.
In the case of `N#Cc1ccc(-n2ccc(CN3CCC(NC(=O)COc4cccc(Cl)c4)CC3)c2)cc1`, the IC50 was 0.145 µM in data set [2] and 0.052 µM in data set [1].
Consider `O=C(COc1cccc(Cl)c1)NC1CCN(Cc2ccn(-c3ccc(OC(F)(F)F)cc3)c2)CC1`, for which the clearance in the data set on Liver microsomes was 21 µL/min/mg. In addition, the values for the IC50 in data set [2] and in data set [1] were 0.015 µM and 0.031 µM, respectively. The same compound displayed a CL in the data set on Mus musculus of 34 mL/min/kg. Moreover, the fraction unbound in data set [3] was determined as 0.032.
As to `CC(c1ccn(-c2ccc(C(F)(F)F)cc2)c1)N1CCC(NC(=O)COc2cccc(Cl)c2)CC1` (stereo not given), the values for the IC50 in data set [2] and in data set [1] were 0.117 µM and 0.043 µM, respectively.
As to `Cc1cccc(OCC(=O)NCC2CN(Cc3ccn(-c4ccc(C(C)(C)C)cn4)c3)C2)c1`, the IC50 in data set [1] stood at 0.169 µM.
On the same count and under the same terms, as for `O=C(COc1cccc(Cl)c1)NC1CCN(Cc2ccn(C3CCCC3)c2)CC1`, the figure is greater than 33 µM.
In the case of `Fc1ccc(-c2cc(C3CCN(Cc4ccn(-c5ccc(C(F)(F)F)cc5)c4)CC3)no2)cc1`, the IC50 in data set [2] stood at 0.067 µM; in data set [1], 0.025 µM.
For `Fc1ccc(-c2cc(C3CCN(Cc4ccn(-c5ccc(C(F)(F)F)cc5)c4)CC3)on2)cc1`, the IC50 in data set [1] came out at 0.066 µM.
Same read-out and setting: under `O=C(COc1ccc(F)c(F)c1)N[C@H]1CC[C@@H](Nc2ccn(-c3ccc(C(F)(F)F)cc3)c2)CC1` stands 0.104 µM.
`COc1ccc(-n2ccc(CN3CCC(NC(=O)COc4cccc(Cl)c4)CC3)c2)cc1`: the IC50 in data set [2] amounted to 0.09 µM; in data set [1], 0.1 µM.
`O=C(COc1cccc(Cl)c1)NC1CCN(Cc2cn(-c3ccc(C(F)(F)F)cc3)cn2)CC1`: in data set [1], the concentration for half-maximal inhibition (IC50) stood at 2.14 µM.
Compound `O=C(COc1cccc(Cl)c1)N1CCC(Nc2ccn(-c3ccc(C(F)(F)F)cn3)c2)CC1` gave a half-maximal inhibitory concentration (IC50) in data set [1] of 1.25 µM.
The same measure, in the same setting: under `O=C(COc1cccc(Cl)c1)NC1CCN(Cc2ccc3[nH]ccc3c2)CC1` stands 2.34 µM.

Broadly, the IC50 is the midpoint of a concentration-inhibition curve. By fraction unbound is commonly meant the share of the substance not bound to proteins or other matrix.
